Read-outs that look alike come from different tables or passages of the source.
Columns and labels:
[1] = Transport (permeability) of ginsenosides in CaCo-2 cell monolayers; format: in vitro ADME; settings: human
Method: (§1) CaCo-2 cells (passage no 41–43) were seeded onto collagen-coated permeable support (1.0 μm pore size) in a 24-well plate at a density of 2.5 × 10^4 cells/insert and cultured for 21 days in Dulbecco’s modified eagle’s medium supplemented with 10% fetal bovine serum, 1% non-essential amino acids, and 1% penicillin-streptomycin at 37 °C in a humidified atmosphere (5% CO2/95% air). After confirming that the transepithelial electrical resistance (TEER) of the CaCo-2 cell monolayer was over 400 Ω·cm^2, Apical to basal (A to B) transport and B to A transport of ginsenosides using 50 µM, GRb1 was investigated as previously described. The same permeability study was performed using 50 µM GRb2, GRc, GRd, GRg3, GRh2, GF2, CK, PPD, GRe, GRf, GRg1, GRh1, GF1, or PPT.
(§2) For the transport study of ginsenosides in CaCo-2 cells and LLC-PK1-P-gp cells, the ginsenoside transport rate in the A to B or B to A directions was calculated from the slope of the regression line from the mean transported amounts versus time plot. The apparent permeability (Papp) was calculated using Equation (1). (1) Papp (×10^−6 cm/s)=transport rate (nmol/min)/concentration(μM)×area(cm^2)×60s
(§3) The efflux ratio was calculated by dividing the Papp of ginsenosides from the B to A direction by that from the A to B direction.

[2] = test system: LAB; experiment: In vitro RGE fermentation with LAB; format: in vitro ADME
Method: To identify the effects of LAB on ginsenoside metabolism, an in vitro fermentation study was performed according to the method of Jeon et al., with slight modifications. Briefly, RGE (10 mL, 1 pouch) and 2 g LAB (containing 1 billion CFU) were suspended in 10 mL autoclaved MRS broth (550 mg broth powder dissolved in 10 mL water). For the 15 ginsenosides, individual ginsenosides (10 μM each) and 2 g of LAB were suspended in 20 mL of autoclaved MRS broth (550 mg broth powder dissolved in 20 mL water). The mixture was incubated for 7 days in a shaking incubator at 37 °C and 300 rpm, and a 0.1 mL aliquot of the incubation mixture was collected on days 0, 3, 5, and 7. The incubation medium was diluted 100-fold with distilled water and stored at −80 °C to analyze ginsenosides using the LC-MS/MS system.
To measure the metabolic activity of ginsenosides, the formation rate of ginsenosides (pmol/day) was calculated by dividing the slope of the regression line by the amount of deglycosylated ginsenosides versus the incubation time plot by the initial concentration of individual ginsenosides.

[3] = Pharmacokinetic study of ginsenosides in healthy humans after repeated oral RGE with or without LAB; format: in vivo, human
Method: A single-sequence study consisting of two periods was conducted on five healthy male subjects (body weight > 50 kg and age > 19 years) for 29 days. During the first period of the study (RGE treatment group), three pouches of RGE (30 mL, 104.1 mg of total ginsenosides) were administered to 5 subjects once daily for 14 days. On the 14th day, the subjects were admitted to the Clinical Trial Center of KNUH at 7 AM and underwent the last RGE administration at approximately 8–9 AM. Blood samples (approximately 3 mL) were collected at 0, 4, 6, 8, 10, 12, 13, 14, and 24 h after the last dose. A saline-locked angiocatheter was placed on the forearm of each subject’s hand. After discarding 1 mL of blood derived from the catheter, 3 mL of blood was drawn into a vacutainer tube containing heparin and centrifuged at 3000× g for 10 min. The supernatant plasma samples were stored at −80 °C until ginsenoside analysis.
In the second half of the study (RGE + LAB treatment group), 3 pouches of RGE (30 mL, 104.1 mg of total ginsenosides) and 1 pouch of LAB (1 billion CFU/2 g) were co-administered once daily for 14 days. On the […], the subjects were admitted to the Clinical Trial Center of KNUH at 7 AM and received the last red ginseng dose at approximately 8–9 AM. Blood samples (approximately 3 mL) were withdrawn at 0, 4, 6, 8, 10, 12, 13, 14, and 24 h intervals after the last dose and centrifuged at 3000× g for 10 min; the supernatant plasma samples were stored at −80 °C.
Briefly, to analyze GRb1, GRb2, GRc, GRd, GRe, GRf, GRg1, GRg3, GF1, and GF2, 400 μL of an internal standard (IS; 0.05 ng/mL berberine in methanol) was added to 100 μL of plasma. The mixture was vortexed for 15 min and centrifuged at 16,000× g for 5 min. After centrifugation, 400 μL of the supernatant was evaporated using a speed-dry vacuum concentrator (Christ, Osterode am Harz, Germany). The residue was reconstituted using 200 μL of 70% methanol supplemented with 0.1% formic acid, and a 10 μL aliquot was injected into the LC-MS/MS system. Chromatographic separation was performed using a Polar RP column (150 × 2.0 mm, 4.0 μm particle size; Phenomenex, Torrance, CA, USA) using a mobile phase consisting of 0.1% formic acid in water (phase A) and 0.1% formic acid in methanol (phase B). The following elution gradient was used: 69% of phase B for 0–2.0 min, 69–85% of phase B for 2.0–4.0 min, and 85–69% of phase B for 6.0–6.5 min. The flow rate was 0.27 mL/min.
The mixture was vortexed for 10 min and centrifuged at 16,000× g for 5 min. After centrifugation, the samples were frozen at −80 °C for 4 h. The upper layer was transferred to a clean tube and evaporated. The residue was reconstituted using 200 μL of 80% methanol supplemented with 0.1% formic acid, and a 10 μL aliquot was injected into the LC-MS/MS system. Chromatographic separation was performed using a Luna C18 column (150 × 2.0 mm, 3.0 μm particle size; Phenomenex, Torrance, CA, USA) and using a mobile phase consisting of water containing 0.1% formic acid: methanol containing 0.1% formic acid = 8:92 (v/v) at a flow rate of 0.15 mL/min.
The quantification of ginsenosides was carried out using multiple reaction monitoring in positive ionization mode, as previously described.
Finally, pharmacokinetic parameters were calculated using non-compartmental methods (WinNonlin version 5.1; Pharsight Co., Certara, NJ, USA). Statistical analysis was performed by Student’s t-test to compare the two groups using IBM SPSS Statistics for Windows (version 25.0; IBM Corp., Armonk, NY, USA). Differences were considered significant at p < 0.05.

[4] = in rats; cited from earlier work
[5] = test system: CaCo-2 cells; experiment: Transport (permeability) of ginsenosides in CaCo-2 cell monolayers; format: in vitro ADME; settings: Caco-2
Method: as §1, §2, §3

[6] = target: T1, P-gp (Homo sapiens, UniProt P08183); experiment: Transport of ginsenosides in P-gp-overexpressing LLC-PK1-P-gp cells; format: in vitro ADME
T1 construct: host or cells: LLC-PK1-P-gp cells (passage no. 25–28)
Method: LLC-PK1-P-gp cells (passage no. 25–28) were seeded onto collagen-coated permeable support (1.0 μm pore size) in 24-well plates at a density of 2.5 × 10^4 cells/insert and grown for 5 days with TEER values of over 500 Ω·cm^2 [24]. The A to B transport and B to A transport of GRg3, GRh2, CK, PPD, GRg1, GRh1, and PPT (20 μM each) were measured as previously described. The concentration dependency in the B to A transport of GRh2, CK, PPD, and PPT was measured in the range of 6.25–200 μM for GRh2, CK, PPD, and PPT.
as §2, §3
To measure the kinetic parameters of the concentration dependence on the P-gp-mediated ginsenoside efflux, the ginsenoside transport rate in the B to A direction (ν) versus the ginsenoside concentration (S) plot was fitted in the Michaelis–Menten Equation (2) using Sigma Plot (version 12.0, Systat Software Inc. Chicago, IL, USA). (2) ν=Vmax×S/Km+S

[7] = RGE incubated with LAB (1 billion CFU) for 7 days at 37 °C, result in words
[8] = CaCo-2 cell monolayers, 50 µM ginsenoside, read-out: A to B Papp

T1 sequence (P08183 whole entry): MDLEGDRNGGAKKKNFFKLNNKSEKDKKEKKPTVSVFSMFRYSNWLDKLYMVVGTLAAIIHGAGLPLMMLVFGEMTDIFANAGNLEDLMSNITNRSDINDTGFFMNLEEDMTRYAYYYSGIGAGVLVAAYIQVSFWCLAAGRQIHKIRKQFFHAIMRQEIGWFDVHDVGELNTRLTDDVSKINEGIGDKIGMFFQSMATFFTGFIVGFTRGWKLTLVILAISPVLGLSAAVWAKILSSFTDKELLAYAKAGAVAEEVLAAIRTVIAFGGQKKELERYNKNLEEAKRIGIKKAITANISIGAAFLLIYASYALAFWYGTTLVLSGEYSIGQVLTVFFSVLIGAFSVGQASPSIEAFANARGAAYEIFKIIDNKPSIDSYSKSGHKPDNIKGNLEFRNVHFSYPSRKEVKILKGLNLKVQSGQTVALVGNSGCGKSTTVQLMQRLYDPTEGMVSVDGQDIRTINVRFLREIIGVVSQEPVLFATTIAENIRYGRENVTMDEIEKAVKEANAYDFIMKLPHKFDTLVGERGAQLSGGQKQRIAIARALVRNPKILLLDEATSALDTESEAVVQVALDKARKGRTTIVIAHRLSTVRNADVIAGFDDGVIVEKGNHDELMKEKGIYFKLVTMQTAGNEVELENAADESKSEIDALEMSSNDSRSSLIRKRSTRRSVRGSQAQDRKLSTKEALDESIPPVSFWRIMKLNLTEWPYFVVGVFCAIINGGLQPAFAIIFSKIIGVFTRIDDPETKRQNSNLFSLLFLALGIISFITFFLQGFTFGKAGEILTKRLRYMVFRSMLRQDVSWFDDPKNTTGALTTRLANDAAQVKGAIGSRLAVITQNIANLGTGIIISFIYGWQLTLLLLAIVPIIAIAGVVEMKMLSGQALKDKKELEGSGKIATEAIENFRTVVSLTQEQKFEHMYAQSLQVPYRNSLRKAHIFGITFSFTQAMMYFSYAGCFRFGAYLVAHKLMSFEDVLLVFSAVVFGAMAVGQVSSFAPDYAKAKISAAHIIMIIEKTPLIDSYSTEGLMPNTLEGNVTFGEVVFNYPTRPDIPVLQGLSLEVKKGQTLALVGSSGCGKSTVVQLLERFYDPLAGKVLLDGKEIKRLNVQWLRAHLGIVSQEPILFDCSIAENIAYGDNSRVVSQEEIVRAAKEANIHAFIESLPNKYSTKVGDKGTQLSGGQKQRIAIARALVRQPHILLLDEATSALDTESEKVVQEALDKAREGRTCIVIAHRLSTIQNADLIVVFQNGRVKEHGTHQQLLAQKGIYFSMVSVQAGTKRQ

Structure (SMILES)	Cmax ([3]; human, in vivo, po)	MRT ([3]; human, in vivo, po)	Tmax ([3]; human, in vivo, po)	AUC ([3]; human, in vivo, po, 104.1 mg)	A to B Papp [5]	Relative abundance / metabolic activity following fermentation of RGE with LAB [2]	Relative abundance / metabolic activity following fermentation of RGE with LAB [2, 7]	Papp A→B at 50 µM [1, 8]	also measured
CC(C)=CCCC(C)(OC1OC(CO)C(O)C(O)C1O)C1CCC2(C)C1C(O)CC1C3(C)CCC(O)C(C)(C)C3C(O)CC12C (centres unmarked) [GF1]	–	–	–	–	–	–	remained unchanged	–	Papp A→B at 50 µM ([1]; Caco-2): < 0.3 ×10⁻⁶ cm/s
CC(C)=CCC[C@](C)(O[C@@H]1O[C@H](CO[C@@H]2O[C@H](CO)[C@@H](O)[C@H](O)[C@H]2O)[C@@H](O)[C@H](O)[C@H]1O)[C@H]1CC[C@]2(C)[C@@H]1[C@H](O)C[C@@H]1[C@@]3(C)CC[C@H](O[C@@H]4O[C@H](CO)[C@@H](O)[C@H](O)[C@H]4O[C@@H]4O[C@H](CO)[C@@H](O)[C@H](O)[C@H]4O)C(C)(C)[C@@H]3CC[C@]12C [GRb1, ginsenoside Rb1]	–	–	–	–	–	–	marked decrease	< 0.3 ×10⁻⁶ cm/s	Change of AUC / pharmacokinetic parameters by RGE and LAB co-administration ([3]; RGE + LAB group versus RGE group, humans, result in words): not different; Cmax ([3]; male, human, plasma, po, 104.1 mg total ginsenosides/day, RGE group, human plasma, RGE oral 14 days, mean ± SD, n = 5, read-out: Cmax): 7.1 ± 3.2 ng/mL; MRT ([3]; male, human, plasma, po, 104.1 mg total ginsenosides/day, RGE group, human plasma, RGE oral 14 days, mean ± SD, n = 5, read-out: MRT): 18.3 ± 1.1 h; Tmax ([3]; male, human, plasma, po, 104.1 mg total ginsenosides/day, RGE group, human plasma, RGE oral 14 days, mean ± SD, n = 5, read-out: Tmax): 5.3 ± 4.6 h; Cmax ([3]; male, human, plasma, po, RGE + LAB group, human plasma, oral 14 days, mean ± SD, n = 5, read-out: Cmax): 6.2 ± 2.9 ng/mL; MRT ([3]; male, human, plasma, po, RGE + LAB group, human plasma, oral 14 days, mean ± SD, n = 5, read-out: MRT): 16.9 ± 0.5 h; Tmax ([3]; male, human, plasma, po, RGE + LAB group, human plasma, oral 14 days, mean ± SD, n = 5, read-out: Tmax): 6.8 ± 1.1 h; AUC ([3]; male, RGE + LAB group, human plasma, RGE plus LAB (1 billion CFU/2 g) once daily oral 14 days, AUC 0 to 24 h, mean ± SD, n = 5, read-out: AUC): 164 ± 77.3 ng·h/mL; AUC ([3]; male, RGE group, human plasma, RGE once daily oral 14 days (104.1 mg total ginsenosides/day), AUC 0 to 24 h, mean ± SD, n = 5, read-out: AUC): 185 ± 80.6 ng·h/mL; Oral bioavailability (BA) [4]: less than 5%
CC(C)=CCCC(C)(O)C1CCC2(C)C1C(O)CC1C3(C)CCC(O)C(C)(C)C3C(OC3OC(CO)C(O)C(O)C3O)CC12C (centres unmarked) [GRh1]	–	–	–	–	–	–	significantly increased	< 0.3 ×10⁻⁶ cm/s	efflux ratio at 20 μM ([6]; pig, LLC-PK1, LLC-PK1-P-gp cells, 20 μM, B to A Papp divided by A to B Papp, read-out: ER): 0.9; Papp A→B at 20 μM ([6]; pig, LLC-PK1-P-gp cells, 20 μM, mean ± SD, n = 3, read-out: A to B permeability): 0.21 ± 0.09 ×10⁻⁶ cm/s; Papp B→A at 20 μM ([6]; pig, LLC-PK1-P-gp cells, 20 μM, mean ± SD, n = 3, read-out: B to A permeability): 0.18 ± 0.01 ×10⁻⁶ cm/s

Further lines, with some results ahead:

Cmax ([3]; human, in vivo, po)	MRT ([3]; human, in vivo, po)	Tmax ([3]; human, in vivo, po)	AUC ([3]; human, in vivo, po, 104.1 mg)	A to B Papp [5]	Relative abundance / metabolic activity following fermentation of RGE with LAB [2]	Structure (SMILES)	Relative abundance / metabolic activity following fermentation of RGE with LAB [2, 7]	Papp A→B at 50 µM [1, 8]	also measured
5.1 ± 2.4 ng/mL	18.0 ± 1.2 h	6.2 ± 4.0 h	118.4 ± 58.2 ng·h/mL	below 0.3 × 10^−6 cm/s	marked decrease	CC(C)=CCC[C@](C)(O[C@@H]1O[C@H](CO[C@@H]2O[C@@H](CO)[C@H](O)[C@H]2O)[C@@H](O)[C@H](O)[C@H]1O)[C@H]1CC[C@]2(C)[C@@H]1[C@H](O)C[C@@H]1[C@@]3(C)CC[C@H](O[C@@H]4O[C@H](CO)[C@@H](O)[C@H](O)[C@H]4O[C@@H]4O[C@H](CO)[C@@H](O)[C@H](O)[C@H]4O)C(C)(C)[C@@H]3CC[C@]12C [GRc]	–	–	–
–	–	–	–	below 0.3 × 10^−6 cm/s	marked decrease	CC(C)=CCC[C@](C)(O[C@@H]1O[C@H](CO)[C@@H](O)[C@H](O)[C@H]1O)[C@H]1CC[C@]2(C)[C@@H]1[C@H](O)C[C@@H]1[C@@]3(C)CC[C@H](O)C(C)(C)[C@@H]3[C@@H](O[C@@H]3O[C@H](CO)[C@@H](O)[C@H](O)[C@H]3O[C@@H]3O[C@@H](C)[C@H](O)[C@@H](O)[C@H]3O)C[C@]12C [GRe]	–	–	–
7.2 ± 4.8 ng/mL	7.6 ± 2.8 h	7.2 ± 3.0 h	94.1 ± 50.0 ng·h/mL	below 0.3 × 10^−6 cm/s	remained unchanged	CC(C)=CCC[C@](C)(O)[C@H]1CC[C@]2(C)[C@@H]1[C@H](O)C[C@@H]1[C@@]3(C)CC[C@H](O[C@@H]4O[C@H](CO)[C@@H](O)[C@H](O)[C@H]4O[C@@H]4O[C@H](CO)[C@@H](O)[C@H](O)[C@H]4O)C(C)(C)[C@@H]3CC[C@]12C [GRg3]	–	–	A to B permeability ([6]; LLC-PK1): 0.07±0.01 × 10^−6 cm/s; B to A permeability ([6]; LLC-PK1): 0.07±0.01 × 10^−6 cm/s

From paper PMC9775652, “Concomitant Administration of Red Ginseng Extract with Lactic Acid Bacteria Increases the Plasma Concentration of Deglycosylated Ginsenosides in Healthy Human Subjects” (Biomolecules, 2022)
